Measurements from EP1464336A1, “Use of tryprostatin A for the reversal of cancer drug resistance” (Humboldt-Universität zu Berlin, priority 2003, dated 2004).
Entries after “also recorded” stand apart in the source; their conditions may differ.

Experiments:
[1] = system: BCRP overexpressing cells (EPG85-257RNOV); test: C6-NBD-PS outward translocation assay; type: cell-based, human; details: pretreatment with 10 µM inhibitor; 30 minutes at 37°C (Fig. 8)
Experimental: To measure redistribution of C6-NBD-PS from the cytoplasmic to the exoplasmic leaflet, labelling of the cytoplasmic leaflet is preconditional. Previously, we have introduced a method to achieve efficient labeling of the plasma membrane inner leaflet of the gastric carcinoma cell line EPG85-257 (Pohl, A., Lage, H., Müller, P., Pomorksi, T., and Herrmann. A. (2002) Biochem. J. 365, 259-268). Briefly, cells were preincubated with or without MDR inhibitors, labelled with 5 µM C6-NBD-PS, and incubated at 20°C for 30 minutes to allow inward movement of the NBD analogue. C6-NBD-PS remaining on the cell surface was extracted twice by incubation with 2% (w/v) BSA in mPBS for 10 minutes on ice. Before starting the outward translocation assay, the medium was removed, and cells were washed with ice-cold mPBS. For t=0', ice-cold medium containing 2% (w/v) BSA and 5 mM DFP ( = diisopropyl fluoro-phosphate) in mPBS with or without inhibitor was immediately added to the cell dish for 10 minutes. To measure C6-NBD-PS outward translocation, medium prewarmed to 37°C was added to the dish, and cells were incubated at 37°C for 30 minutes (t = 30'). Removal of the BSA-containing media and a second extraction with 2% BSA in mPBS for 10 minutes terminated incubations, followed by lipid analysis.
After the incubations, the second BSA back exchange medium was pooled with the first, and cells scraped into mPBS. For analysis of outward translocation and of metabolic conversion of C6-NBD-PS, lipids from both scraped cells and media were extracted with isopropanol/chloroform/(5.5:1, v/v) to prevent substantial loss into the aqueous phase. Samples were centrifuged at 780 g for 5 minutes, the supernatant transferred into new glass tubes and dried, dissolved in chloroform/methanol (1:1) and quantified spectroscopically. For C6-NBD-PC analysis, lipids from both cells and incubation media were extracted by the method of Bligh and Dyer (Bligh, E., and Dyer, W. (1959) Can. J Biochem. Physiol. 37, 911-917) using 20 mM acetic acid in the aqueous phase. After 2-D separation [I, chloroform/methanol/25% ammonium hydroxide (65:25:4, v/v); II, chloroform/acetone/methanol/acetic acid/water (10:4:2:2:1, v/v)] on thin layer chromatography plates, fluorescent lipid spots were visualized under ultraviolet light, scraped, and quantified as described before (Pomorski, T., Müller, P., Zimmermann, B., Burger, K., Devaux, P., and Herrmann, A. (1996) J. Cell Sci. 109, 687-698).

[2] = system: cell cycle progression at the G2/M phase; details: literature (Cui CB et al.; Usui T et al.); cited from earlier work
[3] = system: drug-sensitive, and drug-resistant gastric carcinoma and breast cancer cells; test: Time course of mitoxantrone accumulation (flow cytometry); type: cell-based, human; details: 10 µM mitoxantrone and TPS-A for increasing time periods (Fig 5A, 5B)
Experimental: Cellular mitoxantrone accumulation was determined according to the procedure described in Lage H et al., FEBS Lett 2001;503:179-84. Briefly, 4 x 10^5 cells were seeded out in 6-well plates 78 hours prior to the experiment. Incubation with mitoxantrone (0, 1,5 and 10 µg/ml) was performed for 60 minutes at 37°C and 70-80 % cellular confluence. For kinetics of intracellular enrichment of mitoxantrone, cells were exposed to 10 µg/ml mitoxantrone for 0, 5, 10 and 60 min. Cells were washed with ice-cold PBS, trypsinized and resuspended in 4 °C PBS at a concentration of 4 x 10^5 cells/ml. Intracellular fluorescence of mitoxantrone was determined by flow cytometry (Becton-Dickinson, San Jose, CA). The cells were excited at 480 nm and emission was measured at 630 nm. A minimum of 10^4 cells was analyzed for each sample. All assays were performed at least in three independent experiments, each time with triplicate wells.
To analyze the time course of MDR modulating effects of TPS-A, drug-sensitive, and drug-resistant gastric carcinoma and breast cancer cells were incubated with 10 µM mitoxantrone and TPS-A for increasing time periods.

[4] = system: drug-sensitive and drug-resistant gastric and breast cancer cell lines; test: Cytotoxicity of the MDR modulators alone (SRB proliferation assay); type: cell-based, human; details: for growth inhibitory effect / cytotoxic side effects: 10 µM TPS-A alone, any of the drug-sensitive or drug-resistant cancer cell lines tested
Experimental: (§1) Modulation of chemoresistance was tested using a proliferation assay based on sulforhodamine B (SRB), a protein-binding reagent (Skehan P et al., J Natl Cancer Inst 1990;82:1107-12), as described in Lage H et al., Int J Hyperthermia 2000;16:291-303; Lage H et al., FEBS Lett 2001;503:179-84; Lage H et al., FEBS Lett 2001;494:54-9. In each experiment, 350 cells per well were seeded in the presence or absence of TPS-A in 96-well plates in complete medium and allowed to attach overnight. Mitoxantrone or daunorubicin were added in a dilution series in triplicate wells. After 5 days, when unselected wells were still subconfluent, incubation was terminated by replacing the medium with 10 % trichloroacetic acid, followed by incubation at 4 °C for 1 h. After samples were washed 5 times with water and air-dried, 50 µl 0.4 % SRB (Sigma, St. Louis, MO) in 1 % acetic acid was added and samples were incubated for 10 min at room temperature. Unbound dye was eliminated by washing the plates 5 times with 1 % acetic acid. After air-drying and re-solubilisation of the protein-bound dye in 10 mM Tris-HCl (pH 8.0), absorbance was quantified at 562.5 nm. To determine the IC50-value, the absorbance difference of control cells without drug was set to be 100 %. Linear regression of data was done for the linear part of the curve, and IC50-values were calculated from multiple, at least three independent experiments for each cell line.
(§2) The cytotoxicity of the MDR modulators TPS-A and GF120918 on drug-sensitive and drug-resistant gastric and breast cancer cell lines was initially assessed.

[5] = system: gastric and breast carcinoma cell variants; test: Modulation of chemoresistance to mitoxantrone or daunorubicin (SRB proliferation assay, IC50/DMF); type: cell-based, human
Experimental: as §1
The cellular sensitivity to mitoxantrone and daunorubicin was assessed by determining the IC50 values without or with increasing concentrations of TPS-A or GF120918 as a positive control in the different cancer cell variants. Table 1 presents the data of TPS-A reversal of mitoxantrone and daunorubicin resistance in different gastric and breast carcinoma cell variants, respectively. […] In each case, the equation DMF=(IC50 (-CS))/(IC50 (+CS)) [formula] was used to calculate the dose modifying factor (DMF), comparing the IC50 values in the presence (+CS) or absence (-CS) of the corresponding chemosensitizer (CS) TPS-A or GF120918.

[6] = system: MCF-7 breast cancer-derived cell variants; test: Cytotoxicity of the MDR modulator alone (SRB proliferation assay); type: cell-based, human
Experimental: as §1, with “Unbound dye was eliminated by washing the plates 5 times with 1 % acetic acid.” left out, “To determine the IC50-value, the absorbance difference of control cells without drug was set to be 100 %.” left out
as §2

## COc1ccc2c(C[C@@H]3NC(=O)[C@@H]4CCCN4C3=O)c(CC=C(C)C)[nH]c2c1 [TPS-A, tryprostatin A]
[1]
  amount of C6-NBD-PS in the BSA containing medium (outward translocation): sharp and highly significant decrease
[2]
  final concentration arresting cell cycle progression at the G2/M phase: 125 µM
[3]
  chemosensitizing effects over time (mitoxantrone accumulation): time-dependent manner
[4]
  growth inhibitory effect / cytotoxic side effects: no growth inhibitory effect
[4]; listed as tryprostatin A
  growth inhibitory effect / cytotoxic side effects: without showing any cytotoxic side effects
[4]; TPS-A concentration range 1-100 µM
  cytotoxicity: does not show any cytotoxicity
[4]; multidrug-resistant tumor cell lines
  cross-resistance to the MDR modulator: No evidence of cross-resistance
[5]; TPS-A, BCRP-expressing gastric and breast cancer cells (Table 1, Figure 2A)
  sensitization to treatment with mitoxantrone: dose-depending sensitization
[5]; increasing concentrations of TPS-A, drug-sensitive, P-gp- or BCRP-expressing carcinoma cells (Table 1, Figure 2B)
  effect on sensitivity to daunorubicin: No significant effect
[6]; 50 µM TPS-A alone in the cell culture medium
  effect on the cell proliferation: without any effect on the cell proliferation; also recorded: did not show any cytotoxic or growth-inhibiting effects
[6]; MCF-7-derived breast cancer model system
  concentration necessary to obtain a level of drug sensitivity beyond that found for 1 µM GF120918: 50 µM
